Consider one molecule from article PMC4350841 (2015).

Test [1] concerns U-insertion gRNA/pre-mRNA hybrid RNA (pre-cleaved) (RNA, duplex, 3'-end amino modification in two of the oligoribonucleotides used (which ones stated only in S1 Table)) GGAAGUAUGAGACGUAGG/AUUGGAGUUAUAG/CUAUAACUCCGAUAAACCUACGUCUCAUACUUCC
In words: isothermal titration calorimetry. The conditions noted are these: 30 mM KCl, 10 mM Mg(OAc)2; 20 mM HEPES/KOH pH 7.5, 0.5 mM DTT, 27°C; 2 μM RNA; macroscopic, 3 sites.

The test system is the same in test [2]. Nature of the test: circular dichroism titration, 273 nm. To be noted: Na+ (65 mM NaCl, 10 mM Na cacodylate); pH 6.8, 27°C; 12 μM RNA; neomycin up to 0.6 mM; A-form retained. (CD spectra are sensitive to the conformation of chiral molecules.)
Test [3] shares this test system. In words: UV melting, 260 nm. To be noted: Na+ (5 mM Na cacodylate; NaCl not stated); pH 6.8; 1 μM RNA; neomycin 1.3 μM or 13 μM; two helices; 11–13 over both RNAs.
For test [4], the system named is U-deletion gRNA/pre-mRNA hybrid RNA (pre-cleaved) (RNA, duplex, 3'-end amino modification in two of the oligoribonucleotides used (which ones stated only in S1 Table)) GGAAAGGGAAAGUUGUGAUUUU/GCGAGUUAUAGAAUA/GGUUCUAUAACUCGCUCACAACUUUCCCUUUCC
In words: UV melting, 260 nm. To be noted: Na+ (5 mM Na cacodylate; NaCl not stated); pH 6.8; 1 μM RNA; neomycin 1.3 μM or 13 μM; two helices; 11–13 over both RNAs.

Test [5] has the same test system. In words: isothermal titration calorimetry. To be noted: 30 mM KCl, 10 mM Mg(OAc)2; 20 mM HEPES/KOH pH 7.5, 0.5 mM DTT, 27°C; 2 μM RNA; macroscopic, 3 sites. A general note: Isothermal titration calorimetry measures the heat released or taken up as one component is titrated into another.
Test [6] shares this test system. Nature of the test: circular dichroism titration, 273 nm. The conditions noted are these: Na+ (65 mM NaCl, 10 mM Na cacodylate); pH 6.8, 27°C; 12 μM RNA; neomycin up to 0.6 mM; A-form retained.

In general, Kd refers to the equilibrium constant for the complex coming apart. Low values mean a tighter complex, high ones a looser complex. `NC[C@@H]1O[C@H](O[C@H]2[C@@H](O)[C@H](O[C@@H]3[C@@H](O)[C@H](N)C[C@H](N)[C@H]3O[C@H]3O[C@H](CN)[C@@H](O)[C@H](O)[C@H]3N)O[C@@H]2CO)[C@H](N)[C@@H](O)[C@@H]1O`: the values for the Kd in test [1] and in test [5] were 1.1 µM and 1.0 µM, respectively. Also, the binding entry in test [2], in test [3], in test [4] and in test [6] was “yes” throughout.
